Data as given in article PMC10368641, “Expulsion mechanism of the substrate-translocating subunit in ECF transporters” (Nature Communications, 2023).

What was measured:
ECF-FolT2 [1] = biological target: T1, ECF-FolT2 (Lactobacillus delbrueckii, UniProt Q1G929+Q1GBI9+Q1GBJ0); experiment: cryo-EM structure, […] Å; format: binding; conditions: lipid nanodiscs
T1 construct: gene ecfA1; full complex EcfA-EcfA'-EcfT-FolT2, ~115 kDa; N-terminal His10-TEV tag, C-terminal StrepII tag on FolT2; expressed in E. coli MC1061; MSP2N2 lipid nanodiscs; with Energy-coupling factor transporter transmembrane protein EcfT
T1 sequence (Q1GBI8 entry or part of it, one chain of several, further chain): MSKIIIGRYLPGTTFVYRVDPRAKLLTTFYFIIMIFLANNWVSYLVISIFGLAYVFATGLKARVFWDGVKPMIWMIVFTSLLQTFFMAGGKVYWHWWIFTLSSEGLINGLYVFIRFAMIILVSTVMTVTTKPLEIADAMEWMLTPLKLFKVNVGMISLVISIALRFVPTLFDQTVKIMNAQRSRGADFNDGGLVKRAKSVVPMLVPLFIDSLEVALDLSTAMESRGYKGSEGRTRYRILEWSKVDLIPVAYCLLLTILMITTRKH
T1 sequence (Q1G929 entry or part of it, one chain of several): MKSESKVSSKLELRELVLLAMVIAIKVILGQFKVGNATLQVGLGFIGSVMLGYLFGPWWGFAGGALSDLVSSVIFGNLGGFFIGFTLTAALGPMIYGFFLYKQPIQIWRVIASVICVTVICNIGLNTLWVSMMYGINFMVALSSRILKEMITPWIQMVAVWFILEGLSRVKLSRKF

[2] = biological target: T2, solitary ECF module co-reconstituted with solitary FolT1 (Lactobacillus delbrueckii, UniProt Q1G930); experiment: radiolabelled folate uptake into proteoliposomes; format: biochemical; conditions: 100 nM folate, 5 mM lumenal Mg-ATP, 50 mM KPi pH 7.5, 30 °C; labelled compound
T2 construct: gene Ldb1624; FolT1 with N-terminal His8 tag from L. lactis NZ9000; ECF module from E. coli, tag removed by TEV; co-reconstituted into proteoliposomes; Energy-coupling factor transporter transmembrane protein EcfT
T2 sequence (Q1GBI8 entry or part of it, one chain of several): as the sequence (Q1GBI8 entry or part of it, one chain of several, further chain) above
T2 sequence (Q1GBJ0 whole entry, one chain of several, further chain): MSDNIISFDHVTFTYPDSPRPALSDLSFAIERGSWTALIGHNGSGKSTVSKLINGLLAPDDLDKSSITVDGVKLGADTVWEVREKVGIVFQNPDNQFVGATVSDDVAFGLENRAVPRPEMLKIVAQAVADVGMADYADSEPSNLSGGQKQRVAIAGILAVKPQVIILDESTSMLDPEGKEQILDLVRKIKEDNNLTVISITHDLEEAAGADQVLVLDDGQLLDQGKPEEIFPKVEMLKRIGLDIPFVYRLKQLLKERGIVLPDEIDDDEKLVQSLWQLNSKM
T2 sequence (Q1G930 entry or part of it, one chain of several): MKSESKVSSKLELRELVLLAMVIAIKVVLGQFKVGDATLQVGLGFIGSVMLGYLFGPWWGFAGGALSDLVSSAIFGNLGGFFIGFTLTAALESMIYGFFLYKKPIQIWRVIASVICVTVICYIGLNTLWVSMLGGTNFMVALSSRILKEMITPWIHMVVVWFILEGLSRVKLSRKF

solitary ECF module = biological target: T3, solitary ECF module (Lactobacillus delbrueckii, UniProt Q1GBI9+Q1GBJ0); experiment: cryo-EM structure, […] Å; format: binding; conditions: Mg-ATP in both nucleotide sites, closed ATPase dimer; lipid nanodiscs; catalytically inactive double mutant 2EQcryo
T3 construct: gene ecfA1; EcfA-EcfA'-EcfT without S-component, ~92 kDa; N-terminal His10-TEV tag removed; expressed in E. coli MC1061; MSP2N2 lipid nanodiscs; with Energy-coupling factor transporter transmembrane protein EcfT
T3 sequence (Q1GBI8 entry or part of it, one chain of several, further chain): as the sequence (Q1GBI8 entry or part of it, one chain of several, further chain) above

ECF-FolT2 [3] = biological target: T1, ECF-FolT2; experiment: cryo-EM structure, […] Å; format: binding; conditions: 5 mM Mg-AMP-PNP, 10 µM folate, 37 °C; both nucleotide sites; lipid nanodiscs
[4] = substrate: Nc1ncnc2c1ncn2[C@@H]1O[C@H](COP(=O)(O)OP(=O)(O)OP(=O)(O)O)[C@@H](O)[C@H]1O; experiment: enzyme-coupled (PK/LDH) spectrophotometric ATPase assay; format: biochemical, Lactobacillus delbrueckii; conditions: Mg-ATP 0-0.5 mM, 20 mM Tris pH 8.0, 150 mM NaCl, 37 °C, lipid nanodiscs

Nc1ncnc2c1ncn2[C@@H]1O[C@H](COP(=O)(O)OP(=O)(O)O)[C@@H](O)[C@H]1O [ADP]
cryo-EM structure, 3.2 Å (ECF-FolT2 [1]; 5 mM Mg-ATP added, site in EcfA'): ADP is bound exclusively by residues from the EcfA’ subunit

Nc1nc2ncc(CNc3ccc(C(=O)N[C@@H](CCC(=O)O)C(=O)O)cc3)nc2c(=O)[nH]1 [folate]
radiolabelled folate uptake into proteoliposomes [2]: Uptake of folate into the proteoliposome lumen only occurred in the presence of lumenal Mg-ATP

Nc1ncnc2c1ncn2[C@@H]1O[C@H](COP(=O)(O)OP(=O)(O)OP(=O)(O)O)[C@@H](O)[C@H]1O [ATP]
cryo-EM structure, 3.2 Å (ECF-FolT2 [1]; 5 mM Mg-ATP, 10 µM folate, 37 °C, site in EcfA, adenine between EcfA Phe13 and FolT2 Arg174): ATP and ADP bound to the EcfA and EcfA’ subunits, respectively | cryo-EM structure, 2.6 Å (solitary ECF module): In both ATPase subunits, Mg-ATP is now bound and engaged with the signature motif

Nc1ncnc2c1ncn2[C@@H]1O[C@H](COP(=O)(O)OP(=O)(O)NP(=O)(O)O)[C@@H](O)[C@H]1O [AMP-PNP]
cryo-EM structure, 3.6 Å (ECF-FolT2 [3]): with AMP-PNP bound to both nucleotide-binding sites

B1: solitary ECF module (Lactobacillus delbrueckii subsp. bulgaricus ATCC 11842 = JCM 1002) (protein)
chain 1: SDNIISFDHVTFTYPDSPRPALSDLSFAIERGSWTALIGHNGSGKSTVSKLINGLLAPDDLDKSSITVDGVKLGADTVWEVREKVGIVFQNPDNQFVGATVSDDVAFGLENRAVPRPEMLKIVAQAVADVGMADYADSEPSNLSGGQKQRVAIAGILAVKPQVIILDESTSMLDPEGKEQILDLVRKIKEDNNLTVISITHDLEEAAGADQVLVLDDGQLLDQGKPEEIFPKVEMLKRIGLDIPFVYRLKQLLKERGIVLPDEIDDDEKLVQSLWQLNSKM
chain 2: MAIKFENVSYVYSPGSPLEAIGLDQLNFSLEEGKFIALVGHTGSGKSTLMQHFNALLKPTSGKIEIAGYTITPETGNKGLKDLRRKVSLAFQFSEAQLFENTVLKDVEYGPRNFGFSEDEAREAALKWLKKVGLKDDLIEHSPFDLSGGQMRRVALAGVLAYEPEIICLDEPAAGLDPMGRLEMMQLFKDYQAAGHTVILVTHNMDDVADYADDVLALEHGRLIKHASPKEVFKDSEWLQKHHLAEPRSARFAAKLEAAGLKLPGQPLTMPELADAIKQSLKGGEHE
notes: EcfA-EcfA'-EcfT without S-component, ~92 kDa; N-terminal His10-TEV tag removed; expressed in E. coli MC1061; MSP2N2 lipid nanodiscs; with Energy-coupling factor transporter transmembrane protein EcfT
Km [4]: 136.2 µM
